Read-outs that look alike come from different tables or passages of the source.
Assay: Metabolite analysis in plasma, liver, and kidney (TLC)
Format: in vivo, Crl:CD1(ICR) mice
Conditions: Crl:CD1(ICR), mouse
Excerpt: Precoated silica gel 60 F254 chromatoplate (20 × 20 cm, 0.25‐ or 0.5‐mm layer thickness, Merck KGaA) was used for two‐dimensional thin layer chromatography (2D‐TLC) analysis. The solvent systems were ethyl formate/formic acid (95/5, v/v) for the first dimension, and ethyl acetate/acetic acid (95/5, v/v) for the second dimension. The radioactivity on the TLC plates was detected by autoradiography using an imaging plate processed with a fluoro‐image analyzer (FLA‐9500, GE Healthcare). The identity of the metabolites was confirmed by co‐chromatography in comparison with authentic metabolite standards.
Three mice per sex at 8 weeks old were given a single oral dose of [^14C]epyrifenacil at 1 mg/kg with or without co‐administration of OATP inhibitors. […] At 2 h after administration of [^14C]epyifenacil, the animals were euthanized by whole blood collection from the abdominal aorta under anesthesia with isoflurane. The sampling time point was selected as the time around T max based on the result of the blood ^14C‐concentration study. Then, the liver and kidney were dissected out, and the amount of ^14C was measured. Aliquots of heparinized blood samples were separated into blood cells and plasma by centrifugation at 2000g for 10 min at 4°C. The total weight of the liver and kidney was determined for each animal. Two aliquots of plasma and tissue samples (approximately 0.05–0.1 g) were weighed in a glass vial, and the radioactivity was measured.
Approximately 0.3 g of liver, kidney, and plasma samples were pooled, respectively, for each dose and gender to obtain samples for analysis. Pooled liver, kidney, and plasma (ca. 1 g each) samples were homogenized with an approximately 3‐fold volume (v/w) of methanol using the mixer mill MM400 (5 min, 25 cycles/second, Retsch GmbH) and centrifuged (10 000g, 5 min, 4°C) to separate the supernatants from the residues. The extraction was repeated one additional time. The supernatants obtained were pooled and labeled liver, kidney, and plasma extracts. These samples were concentrated and then subjected to TLC analysis. For calculation of extraction efficacy, the post‐extraction solids (PESs) from the tissues and plasma extracts were sampled in low potassium glass vials. PESs were solubilized with 3 M potassium hydroxide solution (approximately 1 ml), then bleached with 30% hydrogen peroxide solution, and finally mixed with 10 ml of Hionic‐Fluor to measure the radioactivity.

[1] = kidney, oral, with rifampicin (OATP inhibitor) 200 mg/kg p.o., Male, 2 h after [^14C]Epyrifenacil 1 mg/kg p.o. + Rifampicin 200 mg/kg p.o., read-out: Metabolite concentration, Kidney
[2] = kidney, oral, Female, 2 h after [^14C]Epyrifenacil 1 mg/kg p.o., read-out: Metabolite concentration, Kidney
[3] = kidney, oral, Male, 2 h after [^14C]Epyrifenacil 1 mg/kg p.o., read-out: Metabolite concentration, Kidney
[4] = liver, oral, Female, 2 h after [^14C]Epyrifenacil 1 mg/kg p.o., read-out: Metabolite concentration, Liver
[5] = liver, oral, Male, 2 h after [^14C]Epyrifenacil 1 mg/kg p.o., read-out: Metabolite concentration, Liver
[6] = plasma, oral, Female, 2 h after [^14C]Epyrifenacil 1 mg/kg p.o., read-out: Metabolite concentration, Plasma
[7] = plasma, oral, Male, 2 h after [^14C]Epyrifenacil 1 mg/kg p.o., pooled samples, read-out: Metabolite concentration, Plasma

For `CN1C(=O)N(c2cc(Oc3cccnc3OCC(=O)O)c(Cl)cc2F)C(=O)CC1(O)C(F)(F)F` (centres unmarked) [M4], which concentration at 2 h (female, in vivo, 1 mg/kg, Female, 2 h after [^14C]Epyrifenacil 1 mg/kg p.o., read-out: Metabolite concentration, Kidney) is on record?
The concentration at 2 h was 23 ng/g.

What about the concentration at 2 h (female, in vivo, 1 mg/kg, Female, 2 h after [^14C]Epyrifenacil 1 mg/kg p.o., read-out: Metabolite concentration, Liver) of the same compound?
Its concentration at 2 h is 858 ng/g.

What about the concentration at 2 h (female, in vivo, Female, 2 h after [^14C]Epyrifenacil 1 mg/kg p.o. + Digoxin 100 mg/kg i.p., read-out: Metabolite concentration, Kidney) of the same compound?
The concentration at 2 h was 30 ng/g.

What about the concentration at 2 h (female, in vivo, Female, 2 h after [^14C]Epyrifenacil 1 mg/kg p.o. + Digoxin 100 mg/kg i.p., read-out: Metabolite concentration, Liver) of the same compound?
The concentration at 2 h was 553 ng/g.

What about the concentration at 2 h (female, in vivo, Female, 2 h after [^14C]Epyrifenacil 1 mg/kg p.o. + Digoxin 200 mg/kg p.o., read-out: Metabolite concentration, Kidney) of the same compound?
Its concentration at 2 h is 7 ng/g.

What about the concentration at 2 h (female, in vivo, Female, 2 h after [^14C]Epyrifenacil 1 mg/kg p.o. + Digoxin 200 mg/kg p.o., read-out: Metabolite concentration, Liver) of the same compound?
Its concentration at 2 h is 291 ng/g.

And the concentration at 2 h (female, in vivo, Female, 2 h after [^14C]Epyrifenacil 1 mg/kg p.o. + Rifampicin 200 mg/kg p.o., read-out: Metabolite concentration, Kidney)?
Its concentration at 2 h is 15 ng/g.

And the concentration at 2 h (female, in vivo, Female, 2 h after [^14C]Epyrifenacil 1 mg/kg p.o. + Rifampicin 200 mg/kg p.o., read-out: Metabolite concentration, Liver)?
Its concentration at 2 h is 129 ng/g.

And the concentration at 2 h (female, in vivo, Female, 2 h after [^14C]Epyrifenacil 1 mg/kg p.o. + Rifampicin 200 mg/kg p.o., read-out: Metabolite concentration, Plasma)?
Its concentration at 2 h is 22 ng/g.

What about the concentration at 2 h (male, in vivo, 1 mg/kg, Male, 2 h after [^14C]Epyrifenacil 1 mg/kg p.o., pooled samples, read-out: Metabolite concentration, Plasma) of the same compound?
Its concentration at 2 h is 3 ng/g.

What about the concentration at 2 h (male, in vivo, 1 mg/kg, Male, 2 h after [^14C]Epyrifenacil 1 mg/kg p.o., read-out: Metabolite concentration, Kidney) of the same compound?
The concentration at 2 h was 9 ng/g.

And the concentration at 2 h (male, in vivo, 1 mg/kg, Male, 2 h after [^14C]Epyrifenacil 1 mg/kg p.o., read-out: Metabolite concentration, Liver)?
Its concentration at 2 h is 1030 ng/g.

And the concentration at 2 h (male, in vivo, Male, 2 h after [^14C]Epyrifenacil 1 mg/kg p.o. + Digoxin 100 mg/kg i.p., read-out: Metabolite concentration, Kidney)?
The concentration at 2 h was 14 ng/g.

And the concentration at 2 h (male, in vivo, Male, 2 h after [^14C]Epyrifenacil 1 mg/kg p.o. + Digoxin 100 mg/kg i.p., read-out: Metabolite concentration, Liver)?
The concentration at 2 h was 651 ng/g.

What about the concentration at 2 h (male, in vivo, Male, 2 h after [^14C]Epyrifenacil 1 mg/kg p.o. + Digoxin 200 mg/kg p.o., read-out: Metabolite concentration, Kidney) of the same compound?
The concentration at 2 h was 5 ng/g.

What about the concentration at 2 h (male, in vivo, Male, 2 h after [^14C]Epyrifenacil 1 mg/kg p.o. + Digoxin 200 mg/kg p.o., read-out: Metabolite concentration, Liver) of the same compound?
Its concentration at 2 h is 157 ng/g.

And the concentration at 2 h (male, in vivo, Male, 2 h after [^14C]Epyrifenacil 1 mg/kg p.o. + Rifampicin 200 mg/kg p.o., read-out: Metabolite concentration, Kidney)?
Its concentration at 2 h is 22 ng/g.

And the concentration at 2 h (male, in vivo, Male, 2 h after [^14C]Epyrifenacil 1 mg/kg p.o. + Rifampicin 200 mg/kg p.o., read-out: Metabolite concentration, Liver)?
Its concentration at 2 h is 172 ng/g.

What about the concentration at 2 h (male, in vivo, Male, 2 h after [^14C]Epyrifenacil 1 mg/kg p.o. + Rifampicin 200 mg/kg p.o., read-out: Metabolite concentration, Plasma) of the same compound?
Its concentration at 2 h is 4 ng/g.

Which results are given for `Cn1c(C(F)(F)F)cc(=O)n(-c2cc(Oc3ccc[nH]c3=O)c(Cl)cc2F)c1=O` [M6]?
concentration at 2 h [1]: 1 ng/g; concentration at 2 h [2]: 4 ng/g; concentration at 2 h [3]: 8 ng/g; concentration at 2 h [4]: 6 ng/g; concentration at 2 h [5]: 12 ng/g; concentration at 2 h [6]: 15 ng/g; concentration at 2 h [7]: 3 ng/g

For `CNC(=O)Nc1cc(Oc2cccnc2OCC(=O)O)c(Cl)cc1F` [M2], which concentration at 2 h [1] is on record?
Its concentration at 2 h is 1 ng/g.

What about the concentration at 2 h [2] of the same compound?
Its concentration at 2 h is 2 ng/g.

And the concentration at 2 h [3]?
Its concentration at 2 h is 4 ng/g.

What about the concentration at 2 h [4] of the same compound?
Its concentration at 2 h is 11 ng/g.

And the concentration at 2 h [5]?
The concentration at 2 h was 24 ng/g.

What about the concentration at 2 h (plasma, oral, with rifampicin (OATP inhibitor) 200 mg/kg p.o., Female, 2 h after [^14C]Epyrifenacil 1 mg/kg p.o. + Rifampicin 200 mg/kg p.o., read-out: Metabolite concentration, Plasma) of the same compound?
The concentration at 2 h was 16 ng/g.

And the concentration at 2 h (plasma, oral, with rifampicin (OATP inhibitor) 200 mg/kg p.o., Male, 2 h after [^14C]Epyrifenacil 1 mg/kg p.o. + Rifampicin 200 mg/kg p.o., read-out: Metabolite concentration, Plasma)?
The concentration at 2 h was 35 ng/g.

And the concentration at 2 h [6]?
Its concentration at 2 h is 55 ng/g.

What about the concentration at 2 h [7] of the same compound?
Its concentration at 2 h is 20 ng/g.
